From patent US20240116910A1, “Heterocycles as WIP1 Inhibitors” (PMV Pharmaceuticals, Inc., priority 2022, published 2024) come the findings set out here.

Test [1] concerns the target recombinant His-tag Wip1(2-420) protein (amino acids #2-420) (Homo sapiens (Human), UniProt O15297). Nature of the test: Wip1(2-420) phosphatase enzyme FDP assay. To be noted: fluorescein diphosphate (FDP) substrate, RT 2 hours, fluorescence Ex485/Em535; read-out: WIP1 (Truncated 2-420) FDP Assay: IC50. Format: biochemical.
Test [2] deals with recombinant His-tag Wip1 full length protein (amino acids #1-605) (Homo sapiens (Human), UniProt O15297). The experiment in a line: Wip1 full length phosphatase enzyme FDP assay. The test is classed as biochemical. The settings on record: fluorescein diphosphate (FDP) substrate, RT 2 hours, fluorescence Ex485/Em535.
Sequence of recombinant His-tag Wip1 full length protein (amino acids #1-605) (O15297 whole entry): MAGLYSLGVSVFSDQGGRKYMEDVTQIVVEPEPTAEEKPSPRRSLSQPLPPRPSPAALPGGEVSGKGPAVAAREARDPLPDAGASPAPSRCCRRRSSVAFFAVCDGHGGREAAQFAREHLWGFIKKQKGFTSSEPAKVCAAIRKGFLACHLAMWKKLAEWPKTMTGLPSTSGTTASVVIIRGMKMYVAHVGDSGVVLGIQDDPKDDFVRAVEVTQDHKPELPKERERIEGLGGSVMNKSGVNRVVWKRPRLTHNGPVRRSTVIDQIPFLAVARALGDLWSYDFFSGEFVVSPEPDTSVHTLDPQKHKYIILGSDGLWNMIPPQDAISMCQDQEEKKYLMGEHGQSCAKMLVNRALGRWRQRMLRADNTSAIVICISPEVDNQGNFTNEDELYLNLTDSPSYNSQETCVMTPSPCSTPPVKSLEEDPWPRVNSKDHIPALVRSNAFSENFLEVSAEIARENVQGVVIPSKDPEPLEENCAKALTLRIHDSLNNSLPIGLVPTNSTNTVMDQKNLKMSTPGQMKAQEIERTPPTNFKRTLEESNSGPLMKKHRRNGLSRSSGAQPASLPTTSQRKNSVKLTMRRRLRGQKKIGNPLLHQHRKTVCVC

Sequence of recombinant His-tag Wip1(2-420) protein (amino acids #2-420) (O15297 2-420): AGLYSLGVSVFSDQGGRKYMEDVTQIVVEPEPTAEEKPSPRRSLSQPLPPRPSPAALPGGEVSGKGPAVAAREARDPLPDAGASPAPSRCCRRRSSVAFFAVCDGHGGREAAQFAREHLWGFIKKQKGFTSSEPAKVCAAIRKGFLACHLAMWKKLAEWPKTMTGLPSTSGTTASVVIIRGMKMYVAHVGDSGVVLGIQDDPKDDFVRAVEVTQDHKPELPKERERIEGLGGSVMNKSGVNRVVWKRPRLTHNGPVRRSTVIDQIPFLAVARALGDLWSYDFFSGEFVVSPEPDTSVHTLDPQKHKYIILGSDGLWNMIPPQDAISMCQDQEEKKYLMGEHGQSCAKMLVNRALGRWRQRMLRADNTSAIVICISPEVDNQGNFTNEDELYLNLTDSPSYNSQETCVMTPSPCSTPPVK

On to `CN(Cc1ncc(C(=O)N[C@@H](CC2CCCCC2)C(=O)Nc2ccncc2)s1)c1cncc(Cl)c1` [Compound 287, 2-[[(5-chloro-3-pyridyl)-methyl-amino]methyl]-N-[(1S)-1-(cyclohexylmethyl)-2-oxo-2-(4-pyridylamino)ethyl]thiazole-5-carboxamide], for which the results for the IC50 in test [1] and in test [2] were 6 nM and 14 nM, respectively.

Regarding `CN(Cc1ccc(C(=O)N[C@@H](CC2CCCCC2)C(=O)NC2CCC(N(C)C)CC2)s1)c1cncc(Cl)c1` (stereo partly drawn) [Compound 298, 5-[[(5-chloro-3-pyridyl)-methyl-amino]methyl]-N-[(1S)-1-(cyclohexylmethyl)-2-[[4-(dimethylamino)cyclohexyl]amino]-2-oxo-ethyl]thiophene-2-carboxamide], the results for the IC50 in test [1] and in test [2] were 31 nM and 11 nM, respectively.

Regarding `Cc1ncc(Cl)cc1NCc1ncc(C(=O)N[C@@H](CC2CCCCC2)C(=O)Nc2ccncc2)s1` [Compound 300, 2-[[(5-chloro-2-methyl-3-pyridyl)amino]methyl]-N-[(1S)-1-(cyclohexylmethyl)-2-oxo-2-(4-pyridylamino)ethyl]thiazole-5-carboxamide], the IC50 in test [1] stood at 6 nM; in test [2] it was 15 nM.

`CN(Cc1ncc(C(=O)N[C@@H](CC2CCCCC2)C(=O)Nc2ccncc2)s1)c1cncc(Cl)c1` [Compound 301, 2-[[(5-Chloro-3-pyridyl)-methyl-amino]methyl]-N-[(1S)-1-(cyclohexylmethyl)-2-oxo-2-(4-pyridylamino)ethyl]thiazole-5-carboxamide]: the results for the IC50 in test [1] and in test [2] were 42 nM and 23 nM, respectively.

As to `O=C(N[C@@H](CC1CCCCC1)C(=O)Nc1ccccn1)c1cnc(CNc2cncc(Cl)c2)s1` [Compound 302, 2-[[(5-chloro-3-pyridyl)amino]methyl]-N-[(1S)-1-(cyclohexylmethyl)-2-oxo-2-(2-pyridylamino)ethyl]thiazole-5-carboxamide], the half-maximal inhibitory concentration (IC50) in test [1] worked out at 55 nM; in test [2], 15 nM.

On to `CN(Cc1ncc(C(=O)N[C@@H](CC2CCCCC2)C(=O)N[C@H]2CC[C@H](N(C)C)CC2)s1)c1cncc(Cl)c1` [Compound 303, 2-[[(5-chloro-3-pyridyl)-methyl-amino]methyl]-N-[(1S)-1-(cyclohexylmethyl)-2-[[4-(dimethylamino)cyclohexyl]amino]-2-oxo-ethyl]thiazole-5-carboxamide], for which the half-inhibitory concentration (IC50) in test [1] and in test [2] was 67 nM throughout.

For the compound `O=C(N[C@@H](CC1CCCCC1)C(=O)NC1CCOCC1)c1cnc(CNc2ccnc(C(F)(F)F)c2)s1` [Compound 305, N-[(1S)-1-(cyclohexylmethyl)-2-oxo-2-(tetrahydropyran-4-ylamino)ethyl]-2-[[[2-(trifluoromethyl)-4-pyridyl]amino]methyl]thiazole-5-carboxamide], the values for the IC50 in test [1] and in test [2] were 90 nM and 31 nM, respectively.

On to `O=C(N[C@@H](CC1CCCCC1)C(=O)NC1CC1)c1cnc(CN2CCc3ccc(C(F)(F)F)cc32)s1` [Compound 306, N-[(1S)-1-(cyclohexylmethyl)-2-(cyclopropylamino)-2-oxo-ethyl]-2-[[6-(trifluoromethyl)indolin-1-yl]methyl]thiazole-5-carboxamide], for which the results for the IC50 in test [1] and in test [2] were 83 nM and 38 nM, respectively.

By IC50 is commonly meant the concentration that inhibits the measured activity by half.
